Here are results for 4 compounds from patent US11505553B2, “2-(Het)aryl-substituted fused heterocycle derivatives as pesticides” (Bayer Aktiengesellschaft, priority 2017, dated 2022).

What all share (assay type): in vivo
For test [1], the system named is Ctenocephalides felis. As to the kind of experiment: Ctenocephalides felis in vitro contact test with adult cat fleas. The settings on record: application rate 5 μg/cm^2 (=500 g/ha), after 48 h, adult cat fleas dead or moribund, read-out: efficacy. The procedure: For the coating of the test tubes, 9 mg of active ingredient are first dissolved in 1 ml of acetone p.a. and then diluted to the desired concentration with acetone p.a. 250 μl of the solution are distributed homogeneously on the inner walls and the base of a 25 ml glass tube by turning and rocking on an orbital shaker (rocking rotation at 30 rpm for 2 h). With 900 ppm of active ingredient solution and internal surface area 44.7 cm^2, given homogeneous distribution, an area-based dose of 5 μg/cm^2 is achieved. After the solvent has evaporated off, the tubes are populated with 5-10 adult cat fleas (Ctenocephalides felis), sealed with a perforated plastic lid and incubated in a horizontal position at room temperature and ambient humidity. After 48 h, efficacy is determined. To this end, the tubes are stood upright and the fleas are knocked to the base of the tube. Fleas which remain motionless at the base or move in an uncoordinated manner are considered to be dead or moribund. […] 100% efficacy means that all the fleas were dead or moribund. 0% efficacy means that no fleas were harmed.

Test [2] relates to Ctenocephalides felis. Put plainly: Ctenocephalides felis oral test. The conditions noted are these: 48 h, application rate 100 ppm in citrated cattle blood, after 2 days, read-out: efficacy (kill). The method, then:
Solvent: dimethyl sulfoxide To produce a suitable active ingredient formulation, 10 mg of active ingredient are mixed with 0.5 ml of dimethyl sulfoxide. Dilution with citrated cattle blood gives the desired concentration. About 20 unfed adult cat fleas (Ctenocephalides felis) are placed into a chamber which is closed at the top and bottom with gauze. A metal cylinder whose bottom end is closed with parafilm is placed onto the chamber. The cylinder contains the blood/active ingredient formulation, which can be imbibed by the fleas through the parafilm membrane. After 2 days, the kill in % is determined. 100% means that all of the fleas have been killed; 0% means that none of the fleas have been killed.

In a further test the test system is Lucilia cuprina. Put plainly: Lucilia cuprina test. The settings on record: 48 h, application rate 100 ppm, L1 larvae, after 2 days, read-out: efficacy (kill). The method, then:
Solvent: dimethyl sulfoxide To produce a suitable active ingredient formulation, 10 mg of active ingredient are mixed with 0.5 ml of dimethyl sulfoxide, and the concentrate is diluted with water to the desired concentration. About 20 L1 larvae of the Australian sheep blowfly (Lucilia cuprina) are transferred into a test vessel containing minced horsemeat and the active ingredient formulation of the desired concentration. After 2 days, the kill in % is determined. 100% means that all the larvae have been killed; 0% means that no larvae have been killed.

Another test deals with Meloidogyne incognita. Put plainly: Meloidogyne incognita test. The conditions noted are these: 336 h, application rate 20 ppm, formation of galls on lettuce after 14 days, read-out: nematicidal efficacy. The procedure:
Solvent: 125.0 parts by weight of acetone To produce a suitable active ingredient formulation, 1 part by weight of active ingredient is mixed with the stated amount of solvent and the concentrate is diluted to the desired concentration with water. Vessels are filled with sand, active ingredient solution, an egg/larvae suspension of the southern root-knot nematode (Meloidogyne incognita) and lettuce seeds. The lettuce seeds germinate and the plants develop. The galls develop on the roots. After 14 days, the nematicidal efficacy in % is determined by the formation of galls. 100% means that no galls were found; 0% means that the number of galls on the treated plants corresponds to the untreated control.

Test [3] relates to Myzus persicae. As to the kind of experiment: Myzus persicae oral test. The conditions noted are these: 120 h, after 5 days, read-out: efficacy; for pest or weed control at 0.8 ppm: application rate 0.8 ppm; for pest or weed control at 4 ppm: application rate 4 ppm. The procedure: Solvent: 100 parts by weight of acetone To produce a suitable active ingredient formulation, 1 part by weight of active ingredient is dissolved with the stated parts by weight of solvent and made up to the desired concentration with water. 50 μl of the active ingredient preparation are transferred into microtitre plates and made up to a final volume of 200 μl with 150 μl of IPL41 insect medium (33%+15% sugar). Subsequently, the plates are sealed with parafilm, which a mixed population of green peach aphids (Myzus persicae) within a second microtitre plate is able to puncture and imbibe the solution. After 5 days, the efficacy in % is determined. 100% means that all the aphids have been killed; 0% means that no aphids have been killed.

Test [4] has as its system Myzus persicae. As to the kind of experiment: Myzus persicae spray test. The conditions noted are these: foliar, 120 h, Chinese cabbage leaf discs, after 5 days, read-out: efficacy; for pest or weed control at 20 g/ha: application rate 20 g/ha; for pest or weed control at 100 g/ha: application rate 100 g/ha. The method, then:
(§1) Solvent: 78 parts by weight of acetone • • 1.5 parts by weight of dimethylformamide Emulsifier: alkylaryl polyglycol ether To produce a suitable active ingredient formulation, 1 part by weight of active ingredient is dissolved with the specified parts by weight of solvent and made up to the desired concentration with water containing an emulsifier concentration of 1000 ppm. To produce further test concentrations, the formulation is diluted with emulsifier-containing water. Discs of Chinese cabbage leaves (Brassica pekinensis) infested by all stages of the green peach aphid (Myzus persicae) are sprayed with an active ingredient formulation of the desired concentration. After 5 days, the efficacy in % is determined. 100% means that all the aphids have been killed; 0% means that no aphids have been killed.

For test [5], the system named is Phaedon cochleariae. Put plainly: Phaedon cochleariae spray test. The conditions noted are these: 168 h, application rate 100 g/ha, larvae, after 7 days, read-out: efficacy. The method, then:
as §1, with “Solvent: 78.0” for “Solvent: 78”, “pekinensis)” for “pekinensis) infested by all stages of the green peach aphid (Myzus persicae)”, “desired concentration and, after drying, populated with larvae of the mustard beetle (Phaedon cochleariae).” for “desired concentration.”, “After 7” for “After 5”, “the beetle larvae” for “the aphids”, “no beetle larvae” for “no aphids”

Test [6] has as its system Phaedon cochleariae. Put plainly: Phaedon cochleariae spray test (PHAECO), contrastive examples. The conditions noted are these: 168 h, 7 dat, read-out: % efficacy. The procedure: Solvent: 78.0 parts by weight of acetone • • 1.5 parts by weight of dimethylformamide Emulsifier: alkylaryl polyglycol ether To produce an appropriate active ingredient formulation, 1 part by weight of active ingredient is dissolved with the stated parts by weight of solvent and made up with water containing an emulsifier concentration of 1000 ppm until the desired concentration is attained. For production of further test concentrations, the mixture is diluted with emulsifier-containing water. Discs of chinese cabbage leaves (Brassica pekinensis) are sprayed with an active ingredient formulation of the desired concentration and, after drying, populated with larvae of the mustard beetle (Phaedon cochleariae). After the desired time, the efficacy in % is determined. 100% means that all beetle larvae have been killed; 0% means that no beetle larvae have been killed.

Test [7] concerns Myzus persicae. Put plainly: Myzus persicae spray test (MYZUPE), contrastive examples. The settings on record: 120 h, 5 dat, read-out: % efficacy. The method, then: as §1, with “78.0” for “78”, “chinese” for “Chinese”, “the desired time,” for “5 days,”, “all” for “all the”
Test [8] concerns Myzus persicae. As to the kind of experiment: Myzus persicae spray test (MYZUPE S), bell pepper plants. The conditions noted are these: 144 h, 6 dat, read-out: % efficacy. The method, then:
Solvent: 14 parts by weight of dimethylformamide Emulsifier: alkylaryl polyglycol ether To produce an appropriate active ingredient formulation, 1 part by weight of active ingredient is dissolved with the stated parts by weight of solvent and made up with water containing an emulsifier concentration of 1000 ppm until the desired concentration is attained. For production of further test concentrations, the mixture is diluted with emulsifier-containing water. If addition of ammonium salts or/and penetrants is required, these are each added to the preparation solution in a concentration of 1000 ppm. Bell pepper plants (Capsicum annuum) severely infested by the green peach aphid (Myzus persicae) are treated by spraying with the active ingredient formulation in the desired concentration. After the desired time, the kill in % is determined. 100% means that all animals have been killed; 0% means that no animals have been killed.

A further test concerns Nilaparvata lugens. As to the kind of experiment: Nilaparvata lugens spray test (NILALU). The settings on record: 96 h, 4 dat, read-out: % efficacy. The procedure: Solvent: 52.5 parts by weight of acetone • 7 parts by weight of dimethylformamide
Emulsifier: alkylaryl polyglycol ether
To produce an appropriate active ingredient formulation, 1 part by weight of active ingredient is dissolved with the stated parts by weight of solvent and made up with water containing an emulsifier concentration of 1000 ppm until the desired concentration is attained. For production of further test concentrations, the mixture is diluted with emulsifier-containing water. If addition of ammonium salts or/and penetrants is required, these are each added to the preparation solution in a concentration of 1000 ppm.
Rice plants (Oryza sativa) are sprayed with an active ingredient formulation of the desired concentration and then populated with larvae of the rice cicada (Nilaparvata lugens).
After the desired time, the efficacy in % is determined. 100% means that all rice cicadas have been killed; 0% means that no rice cicadas have been killed.

A further test has as its system Boophilus microplus. As to the kind of experiment: Boophilus microplus injection test. The conditions noted are these: application rate 20 μg/animal, laying of fertile eggs assessed after 7 days. The method, then:
Solvent: dimethyl sulfoxide To produce a suitable active ingredient formulation, 10 mg of active ingredient are mixed with 0.5 ml of solvent and the concentrate is diluted to the desired concentration with solvent. 1 μl of the active ingredient solution is injected into the abdomen of 5 engorged adult female cattle ticks (Boophilus microplus). The animals are transferred into dishes and kept in a climate-controlled room. Efficacy is assessed after 7 days by laying of fertile eggs. Eggs which are not visibly fertile are stored in a climate-controlled cabinet until the larvae hatch after about 42 days. An efficacy of 100% means that none of the ticks has laid any fertile eggs; 0% means that all the eggs are fertile.

Regarding `CCS(=O)(=O)c1ccc(NC(=O)NC)nc1-c1nc2cc(C(F)(F)F)nnc2n1C` [Example I-1, 1-{5-(ethylsulfonyl)-6-[7-methyl-3-(trifluoromethyl)-7H-imidazo[4,5-c]pyridazin-6-yl]pyridin-2-yl}-3-methylurea], the pest or weed control at 5 µg/cm2, 500 g/ha in the test on Ctenocephalides felis [1] was determined as 100%. In addition, the pest or weed control at 100 ppm with Ctenocephalides felis [2] is 100%. In the test with Lucilia cuprina, the pest or weed control at 100 ppm was 100%. In addition, in the test with Meloidogyne incognita, the pest or weed control at 20 ppm stood at 100%. Moreover, in the test with Myzus persicae [3], the pest or weed control at 0.8 ppm amounted to 90% and the pest or weed control at 4 ppm amounted to 100%. Besides, in the test with Myzus persicae [4], the pest or weed control at 20 g/ha is 90% and the pest or weed control at 100 g/ha was determined as 100%. Further, in the test with Phaedon cochleariae [5], the pest or weed control at 100 g/ha was determined as 100%. The Emax at 4 g/ha in the test on Phaedon cochleariae [6] (4 g/ha) worked out at 67%. Further, in the test with Phaedon cochleariae [6], the Emax at 20 g/ha was determined as 83% and the Emax at 100 g/ha amounted to 100%. For the same compound, the Emax at 4 g/ha in the test on Myzus persicae [7] is 90%. The Emax at 0.8 ppm with Myzus persicae [8] came to 70%.
Turning to `CCS(=O)(=O)c1ccc(NC(=O)N(C)C)nc1-c1nc2cc(C(F)(F)F)nnc2n1C` [Example I-2], the pest or weed control at 5 µg/cm2, 500 g/ha with Ctenocephalides felis [1] was found to be 100%. In addition, the pest or weed control at 100 ppm with Ctenocephalides felis [2] turned out to be 100%. For the same compound, the pest or weed control at 100 ppm with Lucilia cuprina worked out at 100%. For the same compound, in the test on Meloidogyne incognita, the pest or weed control at 20 ppm was 100%. In the test with Myzus persicae [3], the pest or weed control at 0.8 ppm came to 100% and the pest or weed control at 4 ppm came to 100%. Moreover, in the test with Myzus persicae [4], the pest or weed control at 20 g/ha came to 100% and the pest or weed control at 100 g/ha turned out to be 90%. Moreover, the pest or weed control at 100 g/ha in the test on Phaedon cochleariae [5] was determined as 100%. In addition, in the test on Phaedon cochleariae [6], the Emax at 20 g/ha was 83% and the Emax at 100 g/ha worked out at 100%. In the test with Myzus persicae [8], the Emax at 0.8 ppm worked out at 90%.
As to `CCS(=O)(=O)c1ccc(N(C)C(=O)NC)nc1-c1nc2cc(C(F)(F)F)nnc2n1C` [Example I-3], the pest or weed control at 5 µg/cm2, 500 g/ha with Ctenocephalides felis [1] was 100%. Besides, in the test with Ctenocephalides felis [2], the pest or weed control at 100 ppm came out at 100%. The pest or weed control at 100 ppm in the test with Lucilia cuprina was found to be 90%. For the same compound, in the test with Meloidogyne incognita, the pest or weed control at 20 ppm stood at 100%. Also, in the test with Myzus persicae [3], the pest or weed control at 0.8 ppm is 100% and the pest or weed control at 4 ppm is 100%. In addition, the pest or weed control at 20 g/ha in the test on Myzus persicae [4] is 100%. The pest or weed control at 100 g/ha in the test with Phaedon cochleariae [5] was found to be 100%. Besides, in the test on Nilaparvata lugens, the Emax at 4 g/ha amounted to 70%.
Take `CNC(=O)N(C)c1ccc(S(C)(=O)=O)c(-c2nc3cc(C(F)(F)F)nnc3n2C)n1` [Example I-6]: the efficacy in the test on Boophilus microplus came to 80%. For the same compound, in the test with Ctenocephalides felis [2], the pest or weed control at 100 ppm is 100%. Also, in the test on Myzus persicae [3], the pest or weed control at 0.8 ppm turned out to be 100% and the pest or weed control at 4 ppm was determined as 100%. For the same compound, the pest or weed control at 100 g/ha in the test with Myzus persicae [4] turned out to be 90%. Also, the Emax at 0.8 ppm with Myzus persicae [8] worked out at 85%.
